The nature of one data set: Water solubility (pH 5). Conditions: for Water solubility: pH 5; for solubility: pH 5, water.
A short description of data set [1]: Phospholipid affinity PC:Drug (molar). Conditions: molar ratio PC:Drug. Format: physicochemical.
The nature of data set [2]: Pharmacokinetic study of Compound (VI) after topical administration (Example 14). It is filed as in vivo, Dutch-Belted rabbits. The note with it: BID for three days vs QD for three days, 1% dose. As for the experimental part:
A formulation prepared as described in example 13 was used. Compound (VI) was administered topically (50 μL) to rabbits either as BID for three days or QD for three days dose regimen (1% dose).

Data set [3] concerns VEGF-induced retinal permeability. The experiment in a line: Ocular model of retinal edema following eyedrops (Evans Blue albumin leakage). The note with it: mice. It is filed as in vivo. The procedure:
Formulations prepared as described in Examples 20 and 21 were used in these studies. Topical eyedrops of Compound (V) (one time or three times a day), or Compound (VI) (single eye drop) were administered to mice. After 1-2 hr, VEGF was injected intravitreally into mouse eyes. An hour later Evans Blue dye was injected intravenously into the tail vein. About 4 hrs later animals were sacrificed, blood was collected and eyes were enucleated. VEGF-induced retinal permeability as measured by albumin leakage in the eye was measured.

Data set [4] concerns choroidal neovascularization. Put plainly: Laser-induced choroidal neovascularization model. Format: in vivo, C57BL/6 mice. The note with it: for Reduction of area of neovascularization compared to control: topical. The procedure: After 2 weeks, mice were perfused with fluorescein-labeled dextran, and choroidal flatmounts were analyzed using image analysis software to recognize fluorescently stained neovascularization and calculate the total area of neovascularization per retina.

Data set [5] is described as follows: Pharmacokinetic study of Compound (XI) after topical administration (Example 3). It is filed as in vivo, Dutch-Belted rabbits. Conditions: eyedrops 1% API, 50 μL BID for 3 days; rabbit. The procedure: A formulation was prepared as in Example 1 but using Compound (XI) instead of Compound (V). Compound (XI) was administered as eyedrops (1% API, 50 μL) BID for 3 days. On day 3 following a single dose, rabbits were sacrificed, enucleated and various ocular tissues (retina, choroid, cornea, etc) collected. Concentrations in the tissues were measured using LC/MS/MS, following tissue homogenization and acetonitrile precipitation. PK data analysis was conducted using WINNONLIN program. […] Half-life was long at approximately 8 hours.

Data set [6] is described as follows: Pharmacokinetic study of Compound (V) after topical administration (Example 4). Conditions: 50 μL topical, 0.5% dose, QD for one day; rabbit. Format: in vivo, Dutch-Belted rabbits. As for the experimental part:
A formulation containing Compound (V) prepared as described in Example 1 was used in this experiment. 50 μL of Compound (V) (QD for one day) was administered topically to rabbits at 0.5% dose. Ocular tissues such as choroid, retina, sclera and cornea were collected and concentrations measured. Choroidal concentrations were 4 fold higher than retinal concentration.

A short description of data set [7]: Pharmacokinetic study of Compound (VI) after topical administration (Example 8). It is filed as in vivo, Lone Evans rat pups. Conditions: Compound (V) analysed after single 10 μL eyedrops of 0.2, 0.5 or 1% Compound (VI). As for the experimental part:
Formulations prepared as described in Example 5 were used. Rat pups were administered single 10 μL eyedrops of 0.2, 0.5 or 1% Compound (VI) dose. Eye tissues were collected at various time points for Compound (V) analysis using LC/MS/MS. […] Half-life of Compound (V) ranged from 5 to 8 hours in the choroids.

A short description of data set [8]: Pharmacokinetic study of Compounds (X) and (VIII) after topical administration (Example 12). Format: in vivo, Dutch-Belted rabbits. Conditions: Compound (V) after prodrug Compound (VIII) delivered topically to the eye. As for the experimental part:
Formulations prepared as described in Example 9 and 11 were used. Compounds (X) and (VIII) were administered as eyedrops (50 μL) either as QD for three days or BID for three days as the dose regimen.
The retinal concentrations varied depending on the formulation used. The cLogD at pH of 7.4 for Compound (VIII) is 0.14 while for Compound (X) is 3.54.

This note sets out measurements from patent US20060292203A1, “Methods and compositions for the treatment of ocular disorders” (TargeGen, Inc., priority 2005, published 2006).

≈ marks a conversion by molar mass, not a printed value.

Turning to `CP(C)(=O)c1ccc(Nc2nc(C3CCCC3)nc3c2ncn3CCc2cccc(O)c2)cc1` [AP23464, reference compound], the Water solubility in “Water solubility (pH 5)” is more than 0.1 mg/mL. As a reminder, the solubility is how much of the substance goes into solution per volume. Read a low solubility as little dissolved substance. `COc1ccc(Cl)c(Nc2ncnc3cc(OCC4CCN(C)CC4)c(OC)cc23)c1` [AZM475271, reference compound]: in data set [1], the “Phospholipid affinity PC: Drug (molar)” value amounted to 50.73. The solubility in the data set “Water solubility (pH 5)” (water) is less than 100 µg/mL. In turn, `CC(=O)Nc1nnc(S(N)(=O)=O)s1` [Acetazolamide, reference compound] came in with a solubility in the data set “Water solubility (pH 5)” (water) of less than 1000 µg/mL. The compound `Brc1c(NC2=NCCN2)ccc2nccnc12` [Brimonidine, reference compound] displayed a solubility in the data set “Water solubility (pH 5)” (water) of more than 2000 µg/mL. Still for that read-out and setting: to `CC(C)CCC[C@@H](C)[C@H]1CC[C@H]2[C@@H]3CC=C4C[C@@H](O)CC[C@]4(C)[C@H]3CC[C@]12C` [Cholesterol, reference compound] belongs less than 1000 µg/mL; to `Cc1cccc(C)c1-c1cc(C)c2nc(Nc3ccc(OCCN4CCCC4)cc3)nnc2c1` [IV], less than 100 µg/mL; to `O=C(Nc1cnc(Nc2cccc(OCCN3CCCC3)c2)nc1)c1c(Cl)cccc1Cl` [I], less than 100 µg/mL. With `Cc1cc(Nc2ncc3cc(-c4c(Cl)cccc4Cl)c(=O)n(C)c3n2)ccc1F` [PD180970, reference compound], in the data set “Water solubility (pH 5)”, the Water solubility is <<0.1 mg/mL.

In turn, `Cc1ccc(-c2nn(C(C)(C)C)c3ncnc(N)c23)cc1` [PP1, reference compound] displayed a Water solubility in “Water solubility (pH 5)” of less than 0.1 mg/mL. On to `COc1cc(Nc2c(C#N)cnc3cc(OCCCN4CCN(C)CC4)c(OC)cc23)c(Cl)cc1Cl` [SKI606, reference compound], for which the solubility in “Water solubility (pH 5)” (water) is less than 1000 µg/mL. Same read-out and setting: to `CCN(CC)CCNC(=O)c1c(C)[nH]c(/C=C2\C(=O)Nc3ccc(F)cc32)c1C` [Su11248, reference compound] belongs more than 1000 µg/mL. In “Water solubility (pH 5)”, `CC1(C)O[C@@H]2C[C@H]3[C@@H]4CCC5=CC(=O)C=C[C@]5(C)[C@@]4(F)[C@@H](O)C[C@]3(C)[C@]2(C(=O)CO)O1` [TAA, reference compound] displayed a Water solubility of less than 0.1 mg/mL. `C=CC[C@@H]1/C=C(\C)C[C@H](C)C[C@H](OC)[C@H]2O[C@@](O)(C(=O)C(=O)N3CCCC[C@H]3C(=O)O[C@H](/C(C)=C/[C@@H]3CC[C@@H](O)[C@H](OC)C3)[C@H](C)[C@@H](O)CC1=O)[C@H](C)C[C@@H]2OC` [Tacrolimus, reference compound] displayed a solubility in “Water solubility (pH 5)” (water) of less than 100 µg/mL. Compound `Cc1cc(-c2cc(O)ccc2Cl)cc2nnc(Nc3ccc(S(=O)(=O)NCCN4CCCC4)cc3)nc12` [VII] yielded a solubility in “Water solubility (pH 5)” (water) of less than 100 µg/mL. `Cc1cc(-c2cc(OC(=O)c3ccccc3)ccc2Cl)cc2nnc(Nc3ccc(OCCN4CCCC4)cc3)nc12` [VI]: the “Back of the eye concentrations, dependence on dose regimen” value in data set [2] is recorded as “linear”. In [3] (QD eyedrop administration), the “Inhibition of retinal leak” value came out at 100%. Also, the “Reduction of area of neovascularization compared to control” value is reported as “approximately 47%” in data set [4] (50 μg per eye) and “approximately 35%” in [4] (150 μg per eye). Besides, the “Effect on choroidal neovascularization (FIG. 2)” value in [4] (topical administration) was “prevents choroidal neovascularization”. The same compound came in with a solubility in “Water solubility (pH 5)” (water) of less than 100 µg/mL. In the case of `Cc1cc(-c2cc(O)ccc2Cl)cc2nnc(Nc3ccc(OCCN4CCCC4)cc3)nc12` [V], in data set [5], the “Concentrations in the choroid” value was “at the μM level”. Further, in data set [6], the “Choroidal concentration relative to retinal concentration” value is 4 fold and the “Half-life (comparison)” value is “about two times longer”. Also, in data set [7], the “Concentrations in the retina, dose dependence” value was “non-linear” and the “Mean AUC in the choroid, dose dependence” value is on record as “linear”. For the same compound, in [8], the “Amount of API recovered from the retina and the choroid” value was “No measurable amount”. In addition, the “Inhibition of retinal leak” value in data set [3] (QD eyedrop administration) was determined as 50%. Moreover, the “Inhibition of retinal leak” value in data set [3] (TID eyedrop dosing) is given as approximately 80%. The solubility in the data set “Water solubility (pH 5)” (water) is less than 100 µg/mL. Take `Clc1ccc(Nc2nnc(Cc3ccncc3)c3ccccc23)cc1` [Vatalanib, reference compound]: the “Phospholipid affinity PC: Drug (molar)” value in [1] was “Not stable”. In addition, the solubility in “Water solubility (pH 5)” (water) was more than 2000 µg/mL. In the data set “Water solubility (pH 5)” (water), `Cc1cccc(C)c1-c1cc(C)c2nc(Nc3ccc(S(=O)(=O)NCCN4CCCC4)cc3)nnc2c1` [XIII] displayed a solubility of less than 100 µg/mL. Still for that read-out and setting: to `Cc1cc(-c2cc(OP(=O)([O-])[O-])ccc2Cl)cc2nnc(Nc3ccc(OCCN4CCCC4)cc3)nc12.[Na+].[Na+]` [XII] belongs less than 100 µg/mL. Same read-out and setting: in the case of `Cc1ccc(C(=O)Oc2ccc(Cl)c(-c3cc(C)c4nc(Nc5ccc(OCCN6CCCC6)cc5)nnc4c3)c2)cc1` [XIX] it was less than 100 µg/mL; in that of `Cc1cc(-c2c(Cl)cccc2Cl)cc2nnc(Nc3ccc(OCCN4CCCC4)cc3)nc12` [XI], less than 100 µg/mL; in that of `Cc1cc(-c2cc(OC(=O)c3ccccc3)ccc2Cl)cc2nnc(Nc3ccc(S(=O)(=O)NCCN4CCCC4)cc3)nc12` [XVIII], less than 100 µg/mL. Same read-out and setting: in the case of `CC(=O)Oc1ccc(Cl)c(-c2cc(C)c3nc(Nc4ccc(OCCN5CCCC5)cc4)nnc3c2)c1` [XVII] it was less than 100 µg/mL.

The compound `Cc1cc(-c2c(Cl)ccc(O)c2Cl)cc2nnc(Nc3ccc(S(=O)(=O)NCCN4CCCC4)cc3)nc12` [XVI] gave a solubility in “Water solubility (pH 5)” (water) of less than 100 µg/mL.

Consider `Cc1cc(-c2cc(O)ccc2Br)cc2nnc(Nc3ccc(S(=O)(=O)NCCN4CCCC4)cc3)nc12` [XV], for which the solubility in “Water solubility (pH 5)” (water) is less than 100 µg/mL.

`Nc1nc(O)c2nc(-c3cccc(O)c3)c(-c3cccc(O)c3)nc2n1` [XXI] came in with a solubility in the data set “Water solubility (pH 5)” (water) of less than 100 µg/mL. The same measure, in the same setting: in the case of `Cc1cc(-c2cc(OC(=O)C(C)C)ccc2Cl)cc2nnc(Nc3ccc(OCCN4CCCC4)cc3)nc12` [XX] it was less than 100 µg/mL. On the same count and under the same terms, in the case of `Cc1cc(-c2cc(OC(=O)C(C)(C)C)ccc2Cl)cc2nnc(Nc3ccc(OCCN4CCCC4)cc3)nc12` [X] it was less than 100 µg/mL. `CC(C)NCC(O)COc1cccc2ccccc12` (stereo not drawn) [propanolol, reference compound] had a solubility in “Water solubility (pH 5)” of approximately 100 µg/mL (≈ 386 µM). Regarding Tropicamide [reference compound], in the data set “Water solubility (pH 5)”, the Water solubility is less than 1 mg/mL.
